Reference: patent publication US11679123B2, “N-acylated hyaluronic acid for hyperuricemia and gouty arthritis” (Queen's University at Kingston, priority 2018, dated 2023)

How the values were obtained:
[1] = test system: rats with MSU-induced acute gout; experiment: MSU crystal-induced acute gout in rats: ankle swelling ratio; assay type: in vivo, Wistar rats; details: P<0.01; for ankle swelling in comparison with the MSU treated group: at 4 h, 12 h and 48 h
Procedure: Male Wistar rats (n=50, 8 weeks: 160-200 g) were purchased from Liaoning Changsheng Biotechnology Company Ltd, Jilin, China (SCXK (Liao)-2015-0001). These rats were housed in plastic cages and maintained on a 12-h light/12-h dark cycle (lights on 7:00-19:00 h) under standard laboratory conditions of 55% relative humidity and at 23° C.±1° C. They were given standard chow (Liaoning Changsheng Biotechnology Company Ltd, Jilin, China) and tap water ad libitum. All experimental procedures were approved by the Animal Ethics Committee of Jilin University (Reference NO. 201605).
(§1) An experimental model of MSU-induced gouty arthritis was used in order to evaluate the anti-inflammatory activities of BHA. Rats were randomly divided into five groups (n=10), include a control group (NC), a model group (MC), a 0.3 mg/kg colchicine group (COL), a 10 μg BHA group (10BHA) and a 50 μg BHA group (50BHA). MSU crystals were suspended in 0.9% sterile saline (30 mg/mL) prior to use. The colchicine group rats were orally administrated colchicine (0.3 mg/kg) for 8 days, and all rats except for the control group were injected with 3 mg of MSU (Sigma, USA) at the 6th day into the right ankle synovial space 1 h after gavage feeding. Meanwhile a turbid sample of MSU mixed with 100 μg of BHA or 500 μg of BHA per mL of solution for 10BHA rats or 50BHA rats. At the 8th day, 1 h after the administration of the final agents, blood was sampled from the caudal veins of the rats and the right ankle joints of the rats were collected and fixed in 4% paraformaldehyde. Serum was separated and stored at −80° C. prior to analysis (FIG. 2A, E).
The right ankle circumferences of all rats at 0, 4, 12, 24 and 48 h after MSU injection were measured. The swelling ratio (%) was used to evaluate the gouty arthritis and calculated according to the change of the circumference via the formula: Swelling ratio (%)=(Ct−C0)/C0, wherein, Ct represented the circumference at time t (in h) and C0 represented the circumference at 0 h.

inflammation factors = experiment: Serum inflammation factors by ELISA in rats with MSU-induced acute gout; assay type: in vivo, Wistar rats; details: for 6-Keto-PGF1α / IFN-γ / IL-1α / IL-1β / IL-6 / IL-8 / IL-10 / IL-16 / IP-10 / MCP-1 / MIP-1α / NF-κB / PGE2 / TNF-α / TNF-β: serum, MSU-induced acute gout rats, mean ± S.D., n=10
Procedure: as §1
The serum levels of interleukin-1α (IL-1α, 41734), IL-1β (43360), interleukin-6 (IL-6, 41731), interleukin-8 (IL-8, 41716), IL-10 (41736), interleukin-16 (IL-16, 41628), C—X—C motif chemokine 10 (CXCL10, 41570), monocyte chemoattractant protein 1 (MCP-1, 41640), macrophage inflammatory protein 1α (MIP-1α, 41645), interferon gamma (IFN-γ, 41739), TNF-α (41721), tumor necrosis factor-β (TNF-β, 41673), nuclear factor κ-light-chain-enhancer of activated B cells (NF-κB, 43358), 6-keto-prostaglandin F-1α (6-Keto-PGF1α, 41809) and prostaglandin E2 (PGE2, 41609) in rats were determined by the ELISA method using related Elisa Kits (Yuanye Bio-Technology Co. Ltd, Shanghai, China) according to the manufacturer's instructions.

hyperuricemic mice = experiment: Serum UA in OXO- and yeast extract-induced hyperuricemic mice; assay type: in vivo, Balb/C mice; details: BHA (10 μg and 50 μg intraperitoneal), P<0.05
Procedure: Male Balb/C mice (n=50, 8 weeks: 18-22 g), purchased from Yisi Experimental Animal Technology Company Ltd, Jilin, China (SCXK (Ji)-2016-0003). These mice were housed in plastic cages and maintained on a 12-h light/12-h dark cycle (lights on 7:00-19:00 h) under standard laboratory conditions of 55% relative humidity and 23±1° C. They were given standard feed and tap water ad libitum. All experimental procedures were approved by the Animal Ethics Committee of Jilin University (Reference NO. 201605).
Due to the presence of uricase in mice, a hyperuricemic mouse model was established by using uricase inhibitor and large amounts of purine. Mice were randomly divided into five groups (n=10), including the control group (NC), model group (MC), 20 mg/kg of AL (Shimao Tianjie Pharmaceutical Co. Ltd, Jiangsu, China) group, 10 μg BHA group (10BHA) and 50 μg BHA group (50BHA). Oral administration of AL and intraperitoneal injection of BHA were administered according to the required dose, and all mice were gavage fed 20 g/kg yeast extract powder 12 h prior to the administration of AL and BHA except for NC mice for 8 days. […]
(§2) The serum UA concentrations and XO levels in the serum and liver were determined with a standard diagnostic kit (MAK077, MAK078 Sigma, USA) according to the manufacturer's instructions.

xanthine oxidase (XO) = experiment: XO levels in serum and liver of hyperuricemic mice; assay type: in vivo, Balb/C mice
Procedure: Due to the presence of uricase in mice, a hyperuricemic mouse model was established by using uricase inhibitor and large amounts of purine. Mice were randomly divided into five groups (n=10), including the control group (NC), model group (MC), 20 mg/kg of AL (Shimao Tianjie Pharmaceutical Co. Ltd, Jiangsu, China) group, 10 μg BHA group (10BHA) and 50 μg BHA group (50BHA). Oral administration of AL and intraperitoneal injection of BHA were administered according to the required dose, and all mice were gavage fed 20 g/kg yeast extract powder 12 h prior to the administration of AL and BHA except for NC mice for 8 days. From the 6th to 8th day, 1-h prior to AL and BHA administration, 300 mg/kg of OXO (Sigma, USA) was intraperitoneally injected to all of the mice except those in the control group. At 1 h after the final drug administration, blood was sampled from caudal veins of the mice, serum was separated and their livers were quickly collected (FIG. 3A, E). All samples were stored at −80° C. until assay measurements were performed.
as §2

[2] = 10 μg BHA intra-articular with MSU (10BHA)
[3] = 50 μg BHA intra-articular with MSU (50BHA)

reduction of XO levels in the liver compared to untreated mice (xanthine oxidase (XO); 10 μg BHA, P<0.05): 19.78%
Substance: N-butyrylated HA [BHA]
swelling ratio reduction ([1]; 10 μg BHA, at 12 h (best suppression)): 11.0%
swelling ratio reduction ([1]; 50 μg BHA, at 48 h (best suppression)): 9.5%
ankle swelling in comparison with the MSU treated group ([1]; BHA 10 μg): suppressed the ankle swelling
ankle swelling in comparison with the MSU treated group ([1]; BHA 50 μg): suppressed the ankle swelling
decrease of serum IL-8 compared to rats injected with MSU (inflammation factors; 10 μg BHA, P<0.05): 7.13%
decrease of serum MCP-1 compared to rats injected with MSU (inflammation factors; 10 μg BHA, P<0.05): 7.76%
increase of serum IL-10 compared to rats injected with MSU (inflammation factors; 10 μg BHA, P<0.05): 9.49%
decrease of serum IFN-γ compared to rats injected with MSU (inflammation factors; 50 μg BHA, P<0.05): 33.18%
decrease of serum IL-1β compared to rats injected with MSU (inflammation factors; 50 μg BHA, P<0.05): 5.56%
decrease of serum IL-8 compared to rats injected with MSU (inflammation factors; 50 μg BHA, P<0.05): 6.55%
decrease of serum MCP-1 compared to rats injected with MSU (inflammation factors; 50 μg BHA, P<0.05): 15.58%
6-Keto-PGF1α (inflammation factors; [2]): 257 ± 20.8
IFN-γ (inflammation factors; [2]): 107.4 ± 7.6 pg/mL
IL-1α (inflammation factors; [2]): 71.5 ± 11.2 pg/mL
IL-1β (inflammation factors; [2]): 19.6 ± 1.6 pg/mL
IL-6 (inflammation factors; [2]): 78.5 ± 5.6 pg/mL
IL-8 (inflammation factors; [2]): 213.8 ± 11.4 pg/mL
IL-10 (inflammation factors; [2]): 12 ± 0.9 pg/mL
IL-16 (inflammation factors; [2]): 399.3 ± 14.8 pg/mL
IP-10 (inflammation factors; [2]): 154.3 ± 18^ pg/mL
MCP-1 (inflammation factors; [2]): 321.2 ± 20.5 pg/mL
MIP-1α (inflammation factors; [2]): 282.8 ± 23.6 pg/mL
NF-κB (inflammation factors; [2]): 589.8 ± 104. pg/mL
PGE2 (inflammation factors; [2]): 209.7 ± 17.3 pg/mL
TNF-α (inflammation factors; [2]): 155.9 ± 11.4 pg/mL
TNF-β (inflammation factors; [2]): 139.1 ± 25.7 pg/mL
6-Keto-PGF1α (inflammation factors; [3]): 262 ± 10.8
IFN-γ (inflammation factors; [3]): 75.4 ± 31.7 pg/mL
IL-1α (inflammation factors; [3]): 77.4 ± 13 pg/mL
IL-1β (inflammation factors; [3]): 18.8 ± 0.8 pg/mL
IL-6 (inflammation factors; [3]): 75 ± 5.3 pg/mL
IL-8 (inflammation factors; [3]): 216.6 ± 11.6 pg/mL
IL-10 (inflammation factors; [3]): 11.6 ± 1.1 pg/mL
IL-16 (inflammation factors; [3]): 401.2 ± 25.1 pg/mL
IP-10 (inflammation factors; [3]): 150.5 ± 7.5 pg/mL
MCP-1 (inflammation factors; [3]): 292 ± 27.8 pg/mL
MIP-1α (inflammation factors; [3]): 283.9 ± 12.7 pg/mL
NF-κB (inflammation factors; [3]): 513 ± 74.1 pg/mL
PGE2 (inflammation factors; [3]): 193.2 ± 12.7 pg/mL
TNF-α (inflammation factors; [3]): 152.7 ± 12.1 pg/mL
TNF-β (inflammation factors; [3]): 129 ± 21.9 pg/mL
serum UA levels (hyperuricemic mice): significantly suppressed serum UA levels
XO activity in the livers of hyperuricemic mice (xanthine oxidase (XO); 50 μg BHA): no significant effect on XO activity
